Measured values taken from patent US20190076507A1, “Artificial Red Blood Cell Having Ability to Inhibit Conversion of Hemoglobin into Methemoglobin” (Public University Corporation Nara Medical University, priority 2016, published 2019).

Experiments:
Format in all cases: biochemical
[1] = Catalase (pseudo CAT) activity from change of absorbance at 230 nm of H2O2; settings: for catalase / CAT pseudo activity (in words): Examples 1 and 7; for pseudo CAT: Table 1, NADH without Hb, calculated relative to Hb conc. of 1.5 mM (10 g/dL)
Procedure: (§1) The activity of NADH-cytochrome b5 reductase in the above-mentioned purified and concentrated HbCO solution was determined as NADH-ferricyanide reductase activity according to Beutler, E. above. Diluted Hb samples comprising the enzyme to be measured is mixed with a buffer comprising NADH. The mixed solutions were left standing for 10 minutes at 30° C., and then potassium ferricyanide (K3Fe (CN)6), the enzyme substrate, was added to start the enzyme reaction. The decrease of difference of absorbance at 340 nm, a characteristic absorption of NADH, per minute was measured to determine activity unit E (IU/gHb). […] It was reasoned that the heat-labile NADH-cytochrome b5 reductase was eliminated as denatured and insoluble, or denatured and inactivated, due to the introduction of heat treatment during the purifying step. In addition, activities of NADPH metHb reductase and NADPH diaphorase, which correspond to NADPH-flavin reductase are also determined by the above-mentioned methods according to Beutler, E. Diluted blood samples comprising the enzyme to be measured is mixed with a buffer comprising NADPH. The mixed solutions were left standing for 10 minutes at 37° C., and then methylene bleu (MeBl), the enzyme substrate, was added to start the enzyme reaction. The decrease of difference of absorbance at 340 nm, a characteristic absorption of NADPH, per minute was measured to determine activity unit E (IU/gHb). […] Catalase activity of the purified HbCO solution was determined from the change of the absorbance at 230 nm, the absorption wavelength of H2O2, according to Beutler, E. (RED CELL METABOLISM: A MANUAL OF BIOCHEMICAL METHOD, Grune &Stratton, Inc. pp. 105-106 (1987)). […] Pyrogallol was used for measurement of SOD activity (Marklund, S. and Marklund, G., Eur. J. Biochem. 47, 469-474 (1974); Roth, E. F. Jr. and Gilbert, H. S., Anal. Biochem. 137, 50-53(1984)). Pyrogallol is oxidized with oxygen to generate superoxide, and further reacted to generate a yellow dye with absorbance at 420 nm. SOD inhibits this reaction. SOD enzyme activity was determined based on this inhibitory activity. Analyzed specimens were solutions of purified HbO2, HbCO, metHb and solutions thereof further comprising NADH or L-tyrosine In addition, enzyme activity of crude SFHb solution was also determined as a control. […] When NADH and HbO2 were coexisted, however, high CAT and SOD pseudo activities (Table 1). […] The pseudo activity was detected when NADH alone was present, however, the activity was about a tenth ( 1/10) compared with when HbO2 was coexisted. […] There were results showing that this pseudo activity increased as more NADH was added.

[2] = SOD (pseudo SOD) activity, pyrogallol method; settings: for SOD / SOD pseudo activity (in words): Examples 1 and 7; for pseudo SOD: Table 1, pyrogallol, absorbance at 420 nm, Hb form and antioxidant conc. per entry
Procedure: as §1

HbO2 = molecular target: T1, HbO2 (Homo sapiens, UniProt P68871+P69905); assay: Screening of suppressing effect of compounds against autoxidation of HbO2; settings: for metHb conversion (%): HbO2 10 g/dL, antioxidant 1 g/dL, 37° C., 24 hours
T1 construct: The Hb released by hemolysis was filtered and collected, with the red blood cell membrane components (stroma) separated and removed; from tissue; host or cells: human red blood cells (expired donated blood); heat-treated, nanofiltered, purified and concentrated HbCO, photoconverted to HbO2
T1 sequence (P69905 2-142 limits assumed): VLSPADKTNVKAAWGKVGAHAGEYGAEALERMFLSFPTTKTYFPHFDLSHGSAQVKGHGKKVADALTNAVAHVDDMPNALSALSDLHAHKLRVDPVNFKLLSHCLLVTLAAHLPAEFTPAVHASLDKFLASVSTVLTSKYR
T1 sequence (P68871 2-147 limits assumed): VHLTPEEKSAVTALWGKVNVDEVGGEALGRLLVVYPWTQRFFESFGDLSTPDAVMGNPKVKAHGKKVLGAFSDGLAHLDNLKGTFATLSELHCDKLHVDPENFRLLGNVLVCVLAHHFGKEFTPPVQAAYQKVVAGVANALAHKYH
Procedure: NADH was purchased from Oriental Yeast Co. Ltd., and all the rest were purchased from Sigma-Aldrich (St. Louis, Mo., USA). HbCO solution was transferred to an eggplant flask and irradiated with visible light (halogen lamp; LPL Videeoligtvl-302, LPLCO. Ltd., Tokyo, Japan) under oxygen gas flow to convert to HbO2. […] The conversion ratios to metHb were determined from the visible absorption spectrum. The measurement of spectrum between 300 nm to 500 nm was conducted using a spectrophotometer (V-660, Japan Spectroscopic Company (JASCO)) mounted with a device to control the light scattering to the minimum (an integrating sphere). The atmosphere inside of a Thunberg cuvette was replaced with nitrogen gas and the conversion ratios to metHb were determined from the ratios of absorbance at 405 nm (λmax of metHb) and 430 nm (λmax of deoxyHb).

Compound | metHb conversion (%) (HbO2) | also measured
13: oxyhemoglobin 1.5 mM prepared from the purified Hb solution, no antioxidant [Entry 13] | – | catalase / CAT pseudo activity (in words) [1]: no enzyme activity was found; SOD / SOD pseudo activity (in words) [2]: no enzyme activity was found
14: methemoglobin 1.5 mM prepared from the purified Hb solution, no antioxidant [Entry 14] | – | catalase / CAT pseudo activity (in words) [1]: no enzyme activity was found; SOD / SOD pseudo activity (in words) [2]: no enzyme activity was found
15: carbonyl Hb 1.5 mM prepared from the purified Hb solution, no antioxidant [Entry 15] | – | catalase / CAT pseudo activity (in words) [1]: no enzyme activity was found; SOD / SOD pseudo activity (in words) [2]: no enzyme activity was found
Nc1ncnc2c1ncn2[C@@H]1O[C@H](COP(=O)(O)OP(=O)(O)OP(=O)(O)O)[C@@H](O)[C@H]1O [ATP] | 44% | –
O=C[C@H](O)[C@@H](O)[C@H](O)[C@H](O)CO [D-glucose] | 36% | –
NC(=O)C1=CN([C@@H]2O[C@H](COP(=O)(O)OP(=O)(O)OC[C@H]3O[C@@H](n4cnc5c(N)ncnc54)[C@H](O)[C@@H]3O)[C@@H](O)[C@H]2O)C=CC1 [Entry 10, NADH] | – | pseudo CAT [1]: 3.6 × 10^4 *) IU/g Hb; pseudo SOD [2]: 1.1 × 10^2 U/g Hb
NC(=O)C1=CN([C@@H]2O[C@H](COP(=O)(O)OP(=O)(O)OC[C@H]3O[C@@H](n4cnc5c(N)ncnc54)[C@H](O)[C@@H]3O)[C@@H](O)[C@H]2O)C=CC1 [Entry 11, NADH] | – | pseudo CAT [1]: 4.1 × 10^4 *) IU/g Hb; pseudo SOD [2]: 1.3 × 10^2 U/g Hb
NC(=O)C1=CN([C@@H]2O[C@H](COP(=O)(O)OP(=O)(O)OC[C@H]3O[C@@H](n4cnc5c(N)ncnc54)[C@H](O)[C@@H]3O)[C@@H](O)[C@H]2O)C=CC1 [Entry 12, NADH] | – | pseudo CAT [1]: 19.2 × 10^4 *) IU/g Hb; pseudo SOD [2]: 0.6 × 10^2 U/g Hb
N=C(N)NCCC[C@H](N)C(=O)O [L-arginine] | 38% | –
NC(=O)C[C@H](N)C(=O)O [L-asparagine] | 40% | –
N[C@@H](CS)C(=O)O [L-cysteine] | 34% | –
NC(=O)CC[C@H](N)C(=O)O [L-glutamine] | 43% | –
N[C@@H](Cc1c[nH]cn1)C(=O)O [L-histidine] | 32% | –
NCCCC[C@H](N)C(=O)O [L-lysine] | 34% | –
CSCC[C@H](N)C(=O)O [L-methionine] | 41% | –
N[C@@H](Cc1c[nH]c2ccccc12)C(=O)O [L-tryptophan] | 38% | –
N[C@@H](Cc1ccc(O)cc1)C(=O)O [L-tyrosine] | 38% | –
NC(=O)C1=CN([C@@H]2O[C@H](COP(=O)(O)OP(=O)(O)OC[C@H]3O[C@@H](n4cnc5c(N)ncnc54)[C@H](OP(=O)(O)O)[C@@H]3O)[C@@H](O)[C@H]2O)C=CC1 [NADPH, nicotinamide adenine dinucleotide phosphate (NADPH)] | 37% | effect to suppress metHb conversion compared with NADH (HbO2; coexisting with HbO2 at 37° C. for 26 hours): inferior to that of NADH
CC1=C(/C=C/C(C)=C/C=C/C(C)=C/C=C/C=C(C)/C=C/C=C(C)/C=C/C2=C(C)C(=O)[C@@H](O)CC2(C)C)C(C)(C)C[C@H](O)C1=O [astaxanthin] | 39% | –
OCC(O)CO [glycerol] | 38% | –
NC(=O)c1cccnc1 [nicotinamide] | 34% | –
O=c1c(O)c(-c2ccc(O)c(O)c2)oc2cc(O)cc(O)c12 [quercetin] | 42% | –
O=C1O[C@H]([C@@H](O)CO)C([O-])=C1O.[Na+] [sodium L-Ascorbate] | 37% | –
O=C([O-])[C@H](O)[C@@H](O)[C@H](O)[C@H](O)CO.[Na+] [sodium gluconate] | 49% | –
